“Also recorded” adds a separate entry of the source. Read-outs that look alike come from different tables or passages of the source.

Results on 16 molecules are retold here after PMC3815326 (Microbial biotechnology, 2012).

In test [1] the target is T1, TmoS (Ectopseudomonas mendocina, UniProt Q8KIY1). In kind it is biochemical, Pseudomonas mendocina KR1.
Another test relates to TodS. To be noted: agonist / antagonist classification, ref Busch et al., 2007, cited from earlier work.
Test [2] has as its target T1, TmoS. Put plainly: Isothermal titration calorimetry of purified TmoS with effector molecules. Format: binding, Pseudomonas mendocina KR1. To be noted: for TΔS / affinity / binding to TmoS, in words / ΔH: TmoS. A general note: Isothermal titration calorimetry measures the heat released or taken up as one component is titrated into another.
For test [3], the system named is TmoS. Described as above. Format: binding, Pseudomonas mendocina KR1. The following applies: TodS values from Busch et al., 2007.
For a further test, the system named is T4MO. To be noted: T4MO substrate; ref Mitchell et al., 2002; cited from earlier work.
The next test deals with CitA. To be noted: read-out: KD for CitA; determined by ITC; ref Kaspar et al., 1999; cited from earlier work.
The mark [4] stands for this setting: 100 µM effector (saturating), 30 min, 10 µM TmoS, 4°C.
The mark [5] stands for this setting: 100 µM effector, time course (Fig. 4B and C).
[6] abbreviates: ITC, typically 10 µM TmoS titrated with 500 µM effector, pH 7.5.

T1 sequence (Q8KIY1 whole entry): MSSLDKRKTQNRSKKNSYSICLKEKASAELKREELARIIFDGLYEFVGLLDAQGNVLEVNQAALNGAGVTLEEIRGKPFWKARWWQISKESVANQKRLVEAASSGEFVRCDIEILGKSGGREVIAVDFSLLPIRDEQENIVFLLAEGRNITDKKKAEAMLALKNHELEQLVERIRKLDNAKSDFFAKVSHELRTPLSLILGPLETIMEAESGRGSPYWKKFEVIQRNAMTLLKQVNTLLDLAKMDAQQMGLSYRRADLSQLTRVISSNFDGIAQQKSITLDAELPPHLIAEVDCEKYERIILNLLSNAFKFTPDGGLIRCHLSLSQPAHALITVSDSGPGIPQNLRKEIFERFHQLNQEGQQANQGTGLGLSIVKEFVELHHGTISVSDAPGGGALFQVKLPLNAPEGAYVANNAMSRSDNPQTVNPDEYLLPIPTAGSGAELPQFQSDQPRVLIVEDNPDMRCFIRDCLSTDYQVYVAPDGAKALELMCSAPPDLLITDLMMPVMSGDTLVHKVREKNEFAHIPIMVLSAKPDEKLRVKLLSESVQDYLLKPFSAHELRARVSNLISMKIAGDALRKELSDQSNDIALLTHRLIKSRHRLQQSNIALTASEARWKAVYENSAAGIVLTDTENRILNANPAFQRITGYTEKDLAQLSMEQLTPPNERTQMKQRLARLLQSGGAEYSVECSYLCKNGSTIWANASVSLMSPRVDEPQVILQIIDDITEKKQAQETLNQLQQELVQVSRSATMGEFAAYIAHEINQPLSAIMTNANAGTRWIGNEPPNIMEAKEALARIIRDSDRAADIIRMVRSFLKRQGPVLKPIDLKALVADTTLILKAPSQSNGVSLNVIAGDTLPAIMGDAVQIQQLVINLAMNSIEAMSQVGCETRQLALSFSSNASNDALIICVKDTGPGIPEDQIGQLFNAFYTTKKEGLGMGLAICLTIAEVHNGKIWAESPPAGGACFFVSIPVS

With `Cc1ccc(C)c(C)c1` [1,2,4 Trimethylbenzene], the “TmoS phosphorylation state in presence of effector versus control” value at TmoS [1] is on record as “very similar to the control; also recorded: failed to increase”. For the same molecule, in the test on TodS, the “Effect on TodS” value is recorded as “Antagonist”. Besides, the affinity at TmoS [2], expressed as Kd, was 3460 ± 500 nM. Also, at TmoS [2] (ITC), the TΔS stood at 5.6 ± 0.2 kcal/mol; the “affinity / binding to TmoS, in words” value was “tight binding”; the ΔH was -1.5 ± 0.2 kcal/mol.
On to `c1ccccc1` [Benzene], for which, at TmoS [1], the “TmoS phosphorylation state in presence of effector versus control” value is on record as “increased phosphorylation” and the “stimulation of TmoS autokinase activity in kinetics experiment” value (shortened to “stimulation of TmoS autokinase activity”) was “significantly inferior”. The “Effect on TodS” value in the test on TodS is on record as “Agonist”. Moreover, at TmoS [2], the Kd – broadly, the equilibrium constant for the complex coming apart – turned out to be 170 nM. For the same molecule, at TmoS [2] (ITC), the TΔS came out at 3.6 ± 0.1 kcal/mol; the “affinity / binding to TmoS, in words” value was “nanomolar range”; the ΔH was -5.3 ± 0.1 kcal/mol. The “affinity for TmoS relative to TodS” value in the test on TmoS [3] is reported as “around 4.5 times”.
As for `Clc1ccccc1` [Chlorobenzene], the “TmoS phosphorylation state in presence of effector versus control” value on TmoS [1] was “increased phosphorylation”. Also, the “Effect on TodS” value with TodS was “Agonist”. The same molecule returned a Kd at TmoS [2] of 1250 ± 70 nM. The ΔH at TmoS [2] (ITC) is -6.9 ± 0.3 kcal/mol. In the test on TmoS [3], the “affinity for TmoS relative to TodS” value was “comparable”.
On to `CCc1ccccc1` [Ethylbenzene], for which, at TmoS [1] (setting [4]), the “TmoS phosphorylation state in presence of effector versus control” value is “increased phosphorylation”. In addition, in the test on TodS, the “Effect on TodS” value is on record as “Agonist”. Besides, on TmoS [2] (ITC), the TΔS was 4.1 ± 0.1 kcal/mol and the ΔH was -3.5 ± 0.1 kcal/mol. Moreover, binding at TmoS [2] (KD, ITC, typically 10 µM TmoS titrated with 500 µM effector, pH 7.5) was characterised by a dissociation constant (Kd) of 1560 ± 100 nM. The “affinity for TmoS relative to TodS” value in the test on TmoS [3] is “tighter”.
Turning to `O=[N+]([O-])c1ccccc1` [Nitrobenzene], the “Effect on TodS” value with TodS is listed as “Agonist”. This molecule also displayed a Kd on TmoS [2] of 230 ± 30 nM. Besides, at TmoS [2] (ITC), the TΔS stood at 4.5 ± 0.1 kcal/mol; the “affinity / binding to TmoS, in words” value is reported as “nanomolar range”; the ΔH is -4.1 ± 0.1 kcal/mol. Besides, the “affinity for TmoS relative to TodS” value in the test on TmoS [3] stood at 29 times.
As to `C=Cc1ccccc1` [Styrene], in the test with TodS, the “Effect on TodS” value was “Agonist”. Also, the Kd on TmoS [2] was 810 ± 100 nM. At TmoS [2] (ITC), the TΔS was 3.3 ± 0.3 kcal/mol; the “affinity / binding to TmoS, in words” value is listed as “nanomolar range”; the ΔH is -4.8 ± 0.3 kcal/mol. Moreover, in the test on TmoS [3], the “affinity for TmoS relative to TodS” value is on record as “comparable”.
For the molecule `Cc1ccccc1` [Toluene], on TmoS [1] (setting [4]), the “TmoS phosphorylation state in presence of effector versus control” value is reported as “most pronounced increase”. Also, the “TmoS phosphorylation state in presence of effector versus control” value on TmoS [1] (100 µM effector (saturating), 30 min, 10 µM TmoS, 4°C, listed as toluene) is given as “increased phosphorylation”. Further, at TmoS [1] (100 µM effector, kinetics of autophosphorylation), the “time of maximal TmoS phosphorylation” value came out at 40 min. Besides, the “stimulation of TmoS autokinase activity” value at TmoS [1] (setting [5]) is recorded as “most pronounced increase”. On TmoS [2] (ITC), the TΔS was determined as 2.4 ± 0.1 kcal/mol and the ΔH was -6.5 ± 0.1 kcal/mol. In the test on T4MO, the Km (in general, the substrate concentration at which the rate is half of its maximum) was 4 µM.
Regarding `O=C(O)CC(O)(CC(=O)O)C(=O)O` [citrate], the Kd on CitA was 5500 nM.
As for `C1CCCCC1` [cyclohexane], the “Effect on TodS” value in the test with TodS was “No binding”. At TmoS [2] (ITC), the TΔS entry is given as “No binding”; the “affinity / binding to TmoS, in words” value was “failed to bind”; the ΔH entry is given as “No binding”. At TmoS [2] (setting [6]), the KA result was “No binding” and the KD result was “No binding”.
`Cc1cccc(Cl)c1` [m‐Chlorotoluene]: the “Effect on TodS” value in the test with TodS was “Agonist”. The molecule further gave a Kd on TmoS [2] of 2070 ± 600 nM. At TmoS [2] (ITC), the TΔS was found to be 1.5 ± 0.8 kcal/mol and the ΔH is -5.9 ± 0.9 kcal/mol.
Regarding `Cc1cccc(C)c1` [m‐xylene], in the test on TodS, the “Effect on TodS” value is on record as “Agonist”. This molecule also came in with a Kd at TmoS [2] of 710 ± 90 nM. Further, the TΔS at TmoS [2] (ITC) was found to be 1.1 ± 0.6 kcal/mol.
In the case of `Cc1ccccc1Cl` [o‐Chlorotoluene], the “TmoS phosphorylation state in presence of effector versus control” value on TmoS [1] (setting [4]) is “very similar to the control; also recorded: failed to increase; also recorded: did not trigger an increase”. Further, in the test on TodS, the “Effect on TodS” value is listed as “Antagonist”. In addition, the “Effect on TodS” value in the test with TodS (listed as o‐chlorotoluene) is “antagonists”. Further, at TmoS [2] (ITC), the TΔS amounted to 2.4 ± 0.9 kcal/mol and the ΔH is -5.1 ± 0.9 kcal/mol. For the same molecule, binding on TmoS [2] (setting [6]) was put at a Kd of 2140 ± 400 nM.
As for `Cc1ccccc1C` [o‐xylene], at TmoS [1] (setting [4]), the “TmoS phosphorylation state in presence of effector versus control” value was “very similar to the control; also recorded: failed to increase; also recorded: did not trigger an increase”. Besides, the figures for the “Effect on TodS” value in the test on TodS and in the test with TodS (listed as o‐ xylene) were “Antagonist” and “antagonists”, respectively. Binding at TmoS [2] was put at a Kd of 290 ± 10 nM. Moreover, the ΔH at TmoS [2] (ITC) is -8.9 ± 0.1 kcal/mol.
Take `Cc1ccc(Cl)cc1` [p‐Chlorotoluene]: the “Effect on TodS” value with TodS is “Agonist”. Also, on TmoS [2] (ITC), the TΔS was determined as 5.3 ± 0.1 kcal/mol; the “affinity / binding to TmoS, in words” value is listed as “nanomolar range”; the ΔH is -2.7 ± 0.1 kcal/mol.
Regarding `Cc1ccc(C)cc1` [p‐xylene], in the test with TodS, the “Effect on TodS” value is on record as “Agonist”. Also, binding at TmoS [2] was put at a Kd of 460 ± 50 nM. Also, at TmoS [2] (ITC), the TΔS turned out to be 4.9 ± 0.29 kcal/mol and the ΔH was -3.4 ± 0.3 kcal/mol.
For chlorotoluene, at TmoS [1] (setting [5]), the “stimulation of TmoS autokinase activity” value is given as “significantly inferior”.
